From US8927009B2 (AbbVie Inc., priority 2009, dated 2015)
Structures can show the parent of a compound that is named as a salt.

Assays:
Type in all cases: physicochemical
[1] = Solubility in lipid solvents and solvent mixtures in ambient conditions; details: listed as bis-HCl salt
Protocol: Solubility of ABT-263 parent (free base, crystalline Form I) and ABT-263 bis-HCl salt was tested in a variety of lipid solvents and solvent mixtures in ambient conditions. Trademarked solvents in this study, unless identified hereinabove, are as follows (substantially equivalent products from other manufacturers can be substituted if available): • Miglyol 810™ of Sasol: caprylic/capric triglycerides; • Capmul MCM™ of Abitec: glyceryl caprylate/caprate; • Captex 300™ of Abitec: caprylic/capric triglycerides; • Labrafil M 2125 CS™ of Gattefossé: polyoxyethylene glyceryl linoleate; • Tween 20™ of Uniqema: polysorbate 20; • Labrasol™ of Gattefossé: polyoxyethylene glyceryl caprylate/caprate; • Cremophor RH40™: polyoxyethyene (40) hydrogenated castor oil. “PE-91” is Phosal 53 MCT™+ethanol, 9:1 by volume. “LOT-343” is Labrafil M 1944 CS™+oleic acid+Tween 80™, 30:40:30 by weight.
In some cases, indicated in Table 4 by an asterisk (*), solubility was initially high but precipitation occurred upon standing.

[2] = Drug solubility in ternary excipient systems; set-up: key: ✓: vehicle miscible, or drug fully dissolved in vehicle; details: 10% salt, 20% free base
Description: (§1) Solvents evaluated included Labrafil M 1944 CS™, Imwitor 742™, oleic acid, Capmul PG-8™, Capmul PG-12™, Lauroglycol 90™ (propylene glycol monolaurate, available from Gattefossé) and Phosal 53 MCT™. Surfactants evaluated included Tween 80™, Cremophor RH40™, Gelucire 44/14™ (polyoxyethylene glyceryl laurate, available from Gattefossé) and Labrasol™.

[3] = Drug solubility in ternary excipient systems; set-up: key: ✓: vehicle miscible, or drug fully dissolved in vehicle; x: vehicle immiscible or miscible but turbid, or residual solids present (due to undissolved drug or precipitation); details: 10% salt, 20% free base
Description: as §1

## CC1(C)CCC(c2ccc(Cl)cc2)=C(CN2CCN(c3ccc(C(=O)NS(=O)(=O)c4ccc(N[C@H](CCN5CCOCC5)CSc5ccccc5)c(S(=O)(=O)C(F)(F)F)c4)cc3)CC2)C1 [ABT-263 bis-HCl]
[1]; in Capmul PG-8, ambient conditions
  Solubility: <43 mg/g
[1]; in Capmul PG-12, ambient conditions
  Solubility: <39 mg/g
[1]; in Captex 300, ambient conditions
  Solubility: <52 mg/g
[1]; in Labrafil M 1944 CS, ambient conditions
  Solubility: <45 mg/g
[1]; in Labrafil M 2125 CS, ambient conditions
  Solubility: <44 mg/g
[1]; in PE-91 (Phosal 53 MCT + ethanol 9:1 by volume), ambient conditions
  Solubility: 89 mg/g
[1]; in poloxamer 124, ambient conditions
  Solubility: <41 mg/g
[1]; in sesame oil, ambient conditions
  Solubility: <80 mg/g
[2]; Capmul PG-8/Labrafil M 1944 CS/Labrasol (C8LL) 40:40:20 % by weight
  ABT-263 solubility: ✓
[2]; Capmul PG-12/Labrafil M 1944 CS/Tween 80 (C12LT) 30:40:30 % by weight
  ABT-263 solubility: ✓
[2]; Capmul PG-12/Labrafil M 1944 CS/Tween 80 (C12LT) 35:40:25 % by weight
  ABT-263 solubility: ✓
[2]; Capmul PG-12/Labrafil M 1944 CS/Tween 80 (C12LT) 40:30:30 % by weight
  ABT-263 solubility: ✓
[2]; Capmul PG-12/Labrafil M 1944 CS/Tween 80 (C12LT) 45:30:25 % by weight
  ABT-263 solubility: ✓
[2]; Imwitor 742/Labrafil M 1944 CS/Cremophor RH40 (ILC) 40:40:20 % by weight, listed as salt
  ABT-263 solubility: ✓
[2]; Imwitor 742/Labrafil M 1944 CS/Cremophor RH40 (ILC) 50:30:20 % by weight, listed as salt
  ABT-263 solubility: ✓
[2]; Imwitor 742/Labrafil M 1944 CS/Cremophor RH40 (ILC) 50:40:10 % by weight, listed as salt
  ABT-263 solubility: ✓
[2]; Imwitor 742/Labrafil M 1944 CS/Cremophor RH40 (ILC) 60:30:10 % by weight, listed as salt
  ABT-263 solubility: ✓
[2]; Imwitor 742/Labrafil M 1944 CS/Labrasol (ILL) 40:40:20 % by weight, listed as salt
  ABT-263 solubility: ✓
[2]; Imwitor 742/Labrafil M 1944 CS/Labrasol (ILL) 50:30:20 % by weight, listed as salt
  ABT-263 solubility: ✓
[2]; Imwitor 742/Labrafil M 1944 CS/Labrasol (ILL) 50:40:10 % by weight, listed as salt
  ABT-263 solubility: ✓
[2]; Imwitor 742/Labrafil M 1944 CS/Labrasol (ILL) 60:30:10 % by weight, listed as salt
  ABT-263 solubility: ✓
[2]; Labrafil M 1944 CS/Imwitor 742/Tween 80 (LIT) 30:40:30 % by weight, listed as salt
  ABT-263 solubility: ✓
[2]; Labrafil M 1944 CS/Imwitor 742/Tween 80 (LIT) 30:45:25 % by weight, listed as salt
  ABT-263 solubility: ✓
[2]; Labrafil M 1944 CS/Imwitor 742/Tween 80 (LIT) 40:30:30 % by weight, listed as salt
  ABT-263 solubility: ✓
[2]; Labrafil M 1944 CS/Imwitor 742/Tween 80 (LIT) 40:35:25 % by weight, listed as salt
  ABT-263 solubility: ✓
[2]; Labrafil M 1944 CS/oleic acid/Cremophor RH40 (LOC) 30:60:10 % by weight
  ABT-263 solubility: ✓
[2]; Labrafil M 1944 CS/oleic acid/Cremophor RH40 (LOC) 40:50:10 % by weight
  ABT-263 solubility: ✓
[2]; Labrafil M 1944 CS/oleic acid/Tween 80 (LOT) 30:40:30 % by weight
  ABT-263 solubility: ✓
[2]; Labrafil M 1944 CS/oleic acid/Tween 80 (LOT) 30:45:25 % by weight
  ABT-263 solubility: ✓
[2]; Labrafil M 1944 CS/oleic acid/Tween 80 (LOT) 40:30:30 % by weight
  ABT-263 solubility: ✓
[2]; Labrafil M 1944 CS/oleic acid/Tween 80 (LOT) 40:35:25 % by weight
  ABT-263 solubility: ✓
[2]; Lauroglycol 90/Labrafil M 1944 CS/Cremophor RH40 (LLC) 45:30:25 % by weight
  ABT-263 solubility: ✓
[2]; Lauroglycol 90/Labrafil M 1944 CS/Labrasol (LLL) 40:40:20 % by weight
  ABT-263 solubility: ✓
[2]; Lauroglycol 90/Labrafil M 1944 CS/Labrasol (LLL) 50:30:20 % by weight
  ABT-263 solubility: ✓
[2]; Lauroglycol 90/Labrafil M 1944 CS/Labrasol (LLL) 50:40:10 % by weight, listed as salt
  ABT-263 solubility: ✓
[2]; Lauroglycol 90/Labrafil M 1944 CS/Labrasol (LLL) 60:30:10 % by weight, listed as salt
  ABT-263 solubility: ✓
[2]; oleic acid/Labrafil M 1944 CS/Labrasol (OLL) 40:40:20 % by weight
  ABT-263 solubility: ✓
[2]; oleic acid/Labrafil M 1944 CS/Labrasol (OLL) 50:30:20 % by weight
  ABT-263 solubility: ✓
[2]; oleic acid/Labrafil M 1944 CS/Labrasol (OLL) 50:40:10 % by weight
  ABT-263 solubility: ✓
[2]; oleic acid/Labrafil M 1944 CS/Labrasol (OLL) 60:30:10 % by weight
  ABT-263 solubility: ✓
[3]; Capmul PG-8/Labrafil M 1944 CS/Cremophor RH40 (C8LC) 40:40:20 % by weight
  ABT-263 solubility: x
[3]; Capmul PG-8/Labrafil M 1944 CS/Cremophor RH40 (C8LC) 50:30:20 % by weight
  ABT-263 solubility: x
[3]; Capmul PG-8/Labrafil M 1944 CS/Cremophor RH40 (C8LC) 50:40:10 % by weight
  ABT-263 solubility: x
[3]; Capmul PG-8/Labrafil M 1944 CS/Cremophor RH40 (C8LC) 60:30:10 % by weight
  ABT-263 solubility: x
[3]; Capmul PG-8/Labrafil M 1944 CS/Labrasol (C8LL) 50:30:20 % by weight
  ABT-263 solubility: x
[3]; Capmul PG-8/Labrafil M 1944 CS/Labrasol (C8LL) 50:40:10 % by weight
  ABT-263 solubility: x
[3]; Capmul PG-8/Labrafil M 1944 CS/Labrasol (C8LL) 60:30:10 % by weight
  ABT-263 solubility: x
[3]; Capmul PG-8/Labrafil M 1944 CS/Tween 80 (C8LT) 30:40:30 % by weight
  ABT-263 solubility: x
[3]; Capmul PG-8/Labrafil M 1944 CS/Tween 80 (C8LT) 35:40:25 % by weight
  ABT-263 solubility: x
[3]; Capmul PG-8/Labrafil M 1944 CS/Tween 80 (C8LT) 40:30:30 % by weight
  ABT-263 solubility: x
[3]; Capmul PG-8/Labrafil M 1944 CS/Tween 80 (C8LT) 45:30:25 % by weight
  ABT-263 solubility: x
